Laboratory results reported in patent US6048853A, “1-arylphthalazine antagonists of excitatory amino acid receptors” (Bearsden Bio, Inc., priority 1996, dated 2000).
Like-named read-outs stand apart in the source and are kept apart here.

Experiments:
Male NIH Swiss mice = experiment: Maximum Electro Shock (MES) Seizure Test; type: in vivo
Protocol: This test is to determine the extent of protection by a test compound in a seizure model. This model is described by Rogawski et al. (Epilepsy Research, 15:179-184, 1993). Male NIH Swiss mice (25-30 g) were injected ip with the test drug. […] Animals failing to show tonic hind limb extension were scored as protected. Compounds may be selected which are active in this model.
The results of this assay using compounds prepared as described in Examples 49, 50 and 102 are shown below in Table 2.

Mice = experiment: Subcutaneous Metrazol (scMET) Seizure Test; type: in vivo; settings: dose 3 mg/kg; time 0.5 hr; Metrazol 90 mg/kg sc
Protocol: This test is to determine the extent of protection by a test compound in a seizure model. The method used is that of Chen et al. (Proc. Soc. Exp. Biol. Med., 87:334, 1954). Mice are randomly assigned to vehicle or treatment groups of 3-10 animals per group and then dosed accordingly. Metrazol (pentylenetetrazol) 90 mg/kg is administered subcutaneously (sc) at different time points (0.25, 0.5, 1, 2, 4 hr) after the treatment or control groups. The mice individually housed in clear runs and observed for the presence or absence of clonic seizure activity (>5 s duration) for 30 min after metrazol dosing. A compound is considered active if no seizure is observed. Data is analyzed using aquantal measure (protection/number tested).
The results of this assay using compounds prepared as described in Examples 49 and 50 are shown below in Table 3.

rat [1] = settings: compared with NBQX; cited from earlier work
rat [2] = settings: cited from earlier work

Cc1nnc(-c2ccc(N)cc2)c2cc3c(cc12)OCO3 [Example 50, 4-(4-Aminophenyl)-1-methyl-6,7-methylenedioxyphthalazine]
MES Score (protected/no. tested) (Male NIH Swiss mice; dose 1 mg/kg ip, time 4 hours): 1/7
scMET Score (protect./no. tested) (Mice): 1/5

CC(=O)Nc1ccc(-c2nnc(C)c3cc4c(cc23)OCO4)cc1 [Example 102, 4-(4-acetylaminophenyl)-1-methyl-6,7-methylenedioxyphthalazine]
MES Score (protected/no. tested) (Male NIH Swiss mice; dose 100 mg/kg ip, time 4 hours): 3/3

CC1=NN=C(c2ccc(N)cc2)c2cc3c(cc2C1)OCO3 [GYKI 52466]
efficacy in global ischemia model (rat [1]): as effective as the glutamate site competitive antagonist NBQX
reduction of cortical infarct volume (rat [2]; given continuously for 2 hours just after occlusion): 68%
reduction of cortical infarct volume (rat [2]; given one hour after occlusion): 48%

Nc1ccc(-c2nncc3cc4c(cc23)OCO4)cc1 [Example 49, 1-(4-Aminophenyl)-6,7-methylendioxyphthalazine]
MES Score (protected/no. tested) (Male NIH Swiss mice; dose 3 mg/kg ip, time 0.5 hours): 1/1
MES Score (protected/no. tested) (Male NIH Swiss mice; dose 15 mg/kg ip, time 2 hours): 2/4
scMET Score (protect./no. tested) (Mice): 1/5
